In patent publication US6984653B2, “Heterocyclic compounds, oxazole derivatives, process for preparation of the same and use thereof” (Takeda Pharmaceutical Company Limited, priority 2001, dated 2006):

Legend:
[1] = biological target: T1, HER2 (Homo sapiens, UniProt P04626); assay: Suppression of receptor tyrosine-phosphorylation in human breast cancer cells BT-474; assay type: cell-based; settings: BT-474 cells, 2 hours with test compound, anti-phosphotyrosine antibody blot; read-out: Inhibition of intracellular HER2 phosphorylation BT-474 (IC50: μM)
T1 construct: Taking as 100% the amount of phosphorylation of the HER2 tyrosine in control group; endogenous in cells; host or cells: BT-474 human breast cancer cells
Experimental: A suspension of human breast cancer cell BT-474 (500 μl (300,000 cells)) were sown into a 24-well plate, and cultured at 37° C. in the presence of 5% carbon dioxide. On the following day, 250 μl of a solution of the test compound, which was previously 4-fold diluted, was added. After 2 hours, the extraction was added to stop the reaction and the protein was extracted. This protein was subjected to protein electrophoresis to separate and transferred to a nylon filter. This filter was reacted with an anti-phosphotyrosine antibody; the reaction product was luminated. The amount of film photosensitization was determined using an image analyzer. Taking as 100% the amount of phosphorylation of the HER2 tyrosine in control group, the ratio of the amount of phosphorylation of the HER2 tyrosine in each group receiving a solution of the test compound at each concentration was determined, and the test compound concentration required to achieve 50% suppression by the test compound of the amount of phosphorylation of HER2 tyrosine (IC50 value) was calculated.

[2] = system: human breast cancer cell BT-474; assay: Inhibitory action on breast cancer cell BT-474 proliferation in vitro (SRB); assay type: cell-based; settings: 120 h, BT-474 cells, cultured for 5 days, SRB staining, read-out: Cell growth inhibition BT-474 (IC50: μM)
Experimental: A suspension of human breast cancer cell BT-474 (100 μl (6,000 cells)) were sown to a 96-well microplate and cultured at 37° C. in the presence of 5% carbon dioxide. On the following day, 100 μl of a solution of each test compound, which was previously diluted 2-fold, was added, and the cells were cultured for 5 days. After the culture medium containing the test compound was removed, the cells were washed and fixed with 50% trichloroacetic acid, after which a 0.4% (w/v) SRB solution (dissolved in 1% acetic acid) was added to stain the cells (Skehan et al., Journal of the National Cancer Institute, Vol. 82, pp. 1107-1112, 1990). After the pigment solution was removed and the plate was washed with a 1% acetic acid solution, 100 μl of an extract (10 mM Tris solution) was added to dissolve the pigment; absorbance was measured at an absorption wavelength of 550 nm to quantify the amount of cells as protein content. Taking as 100% the absorbance for the control group, which received no test compound solution, the ratio of the absorbance for each treatment group was determined, and the compound concentration required to achieve 50% suppression of the residual cell content relative to the control (IC50 value) was calculated.

T1 sequence (P04626 23-1255): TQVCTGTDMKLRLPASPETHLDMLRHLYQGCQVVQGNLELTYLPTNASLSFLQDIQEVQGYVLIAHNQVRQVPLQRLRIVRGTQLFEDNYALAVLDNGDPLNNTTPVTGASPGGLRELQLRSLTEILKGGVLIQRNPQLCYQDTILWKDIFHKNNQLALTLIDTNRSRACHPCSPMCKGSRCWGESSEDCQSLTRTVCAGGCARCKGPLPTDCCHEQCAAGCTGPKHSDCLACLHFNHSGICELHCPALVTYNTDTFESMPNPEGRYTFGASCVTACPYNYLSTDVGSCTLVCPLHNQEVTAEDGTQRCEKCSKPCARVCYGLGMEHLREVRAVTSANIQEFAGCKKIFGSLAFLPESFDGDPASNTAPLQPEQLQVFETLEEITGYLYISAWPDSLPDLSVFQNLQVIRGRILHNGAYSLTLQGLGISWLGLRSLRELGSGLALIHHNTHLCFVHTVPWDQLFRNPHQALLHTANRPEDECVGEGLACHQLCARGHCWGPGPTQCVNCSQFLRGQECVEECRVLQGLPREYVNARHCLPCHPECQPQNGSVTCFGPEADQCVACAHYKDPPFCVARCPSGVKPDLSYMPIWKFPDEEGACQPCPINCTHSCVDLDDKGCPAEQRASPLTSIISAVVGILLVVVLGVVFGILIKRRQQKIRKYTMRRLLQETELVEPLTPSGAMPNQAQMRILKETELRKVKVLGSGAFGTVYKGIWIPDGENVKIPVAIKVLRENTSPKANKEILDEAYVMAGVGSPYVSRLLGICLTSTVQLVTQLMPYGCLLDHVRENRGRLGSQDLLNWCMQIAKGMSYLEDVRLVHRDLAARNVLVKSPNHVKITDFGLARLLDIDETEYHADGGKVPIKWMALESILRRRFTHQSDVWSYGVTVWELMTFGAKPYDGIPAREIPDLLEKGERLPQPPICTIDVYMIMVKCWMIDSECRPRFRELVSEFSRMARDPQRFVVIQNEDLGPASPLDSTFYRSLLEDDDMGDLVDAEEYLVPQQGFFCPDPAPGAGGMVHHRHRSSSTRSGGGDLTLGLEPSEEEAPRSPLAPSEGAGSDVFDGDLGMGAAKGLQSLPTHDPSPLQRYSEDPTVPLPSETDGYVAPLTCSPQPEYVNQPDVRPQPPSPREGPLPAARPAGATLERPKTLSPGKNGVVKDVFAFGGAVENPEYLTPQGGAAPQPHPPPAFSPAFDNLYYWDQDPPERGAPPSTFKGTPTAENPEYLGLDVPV

| Structure (SMILES) | IC50 [1] [µM] | IC50 [2] [µM] |
| --- | --- | --- |
| O=C(OCCc1nccn1CCCCc1ccc(OCc2coc(/C=C/c3ccc(C(F)(F)F)cc3)n2)cc1)N1CCCC1 [Example 3, 2-[1-[4-[4-[[2-[(E)-2-[4-(trifluoromethyl)phenyl]ethenyl]-1,3-oxazol-4-yl]methoxy]phenyl]butyl]-1H-imidazol-2-yl]ethyl 1-pyrroridinecarboxylate] | < 4 | < 0.05 |
| CS(=O)(=O)CCc1nccn1CCCCc1ccc(OCc2coc(/C=C/c3ccc(F)cc3)n2)cc1 [Example 11, 2-[(E)-2-(4-fluorophenyl)ethenyl]-4-[[4-[4-[2-[2-(methylsulfonyl)ethyl]-1H-imidazol-1-yl]butyl]phenoxy]methyl]-1,3-oxazole] | < 4 | – |
| CS(=O)(=O)CCc1nccn1CCCCc1ccc(OCc2coc(/C=C/c3ccc(C(F)(F)F)cc3)n2)cc1 [Example 17, 4-[[4-[4-[2-[2-(methylsulfonyl)ethyl]-1H-imidazol-1-yl]butyl]phenoxy]methyl]-2-[(E)-2-[4-(trifluoromethyl)phenyl]ethenyl]-1,3-oxazole] | < 4 | – |

Results, then the compound that gave them:

| IC50 [1] [µM] | IC50 [2] [µM] | Structure (SMILES) |
| --- | --- | --- |
| < 4 | < 0.05 | CC(C)NC(=O)OCCc1nccn1CCCCc1ccc(OCc2coc(/C=C/c3ccc(C(F)(F)F)cc3)n2)cc1 [Example 1, 2-[1-[4-[4-[[2-[(E)-2-[4-(trifluoromethyl)phenyl]ethenyl]-1,3-oxazol-4-yl]methoxy]phenyl]butyl]-1H-imidazol-2-yl]ethyl isopropylcarbamate] |
| < 4 | < 0.05 | O=C(CCc1nccn1CCCCc1ccc(OCc2coc(/C=C/c3ccc(C(F)(F)F)cc3)n2)cc1)N1CCCC1 [Example 6, 1-{3-[1-(4-{4-[(2-{(E)-2-[4-(trifluoromethyl)phenyl]ethenyl}-1,3-oxazol-4-yl)methoxy]phenyl}butyl)-1H-imidazol-2-yl]propanoyl}pyrrolidine] |
| < 4 | 0.15 | CS(=O)(=O)NCCc1nccn1CCCCc1ccc(OCc2coc(/C=C/c3ccc(C(F)(F)F)cc3)n2)cc1 [Example 16, N-[2-[1-[4-[4-[[2-[(E)-2-[4-(trifluoromethyl)phenyl]ethenyl]-1,3-oxazol-4-yl]methoxy]phenyl]butyl]-1H-imidazol-2-yl]ethyl]methanesulfonamide] |
| < 4 | < 0.05 | CN(C)C(=O)CCc1nccn1CCCCc1ccc(OCc2coc(/C=C/c3ccc(C(F)(F)F)cc3)n2)cc1 [Example 5, N,N-dimethyl-3-[1-[4-[4-[[2-[(E)-2-[4-(trifluoromethyl)phenyl]ethenyl]-1,3-oxazol-4-yl]methoxy]phenyl]butyl]-1H-imidazol-2-yl]propanamide] |
